Where two headings read alike, the source gives them in different places.
Experiments:
[1] = system: human dermal fibroblasts (HDFs)
Description: (§1) Human normal skin-derived fibroblast (human dermal fibroblasts; HDFs) were suspended in a normal medium (10% FBS-added Dulbecco's modified minimum essential medium; DMEM). This was seeded in a 12-well plate at a concentration of 3×10^4 cells/well and culturing was started at 5% CO2/95% humidified air, 37° C. The next day (day 0), the culture supernatant was removed by suction and a normal medium (group 1), an adipocyte induction medium (group 2), or an adipocyte induction medium (groups 3-8) added with ALK5 inhibitor II at concentration of 4 μM was added at 1 mL/well.
Once every 2 days, the medium was substituted by a fresh one. In groups 3-7, the cells were cultured in an adipocyte induction medium added with ALK5 inhibitor II only in the periods of Days 0-2, Days 0-4, Days 0-6, Days 0-8 and Days 0-10, respectively, and thereafter cultured in an adipocyte induction medium without addition of ALK5 inhibitor II. In group 8, the cells were cultured in an adipocyte induction medium added with ALK5 inhibitor II throughout the whole period of Days 0-14.

[2] = system: human dermal fibroblasts (HDFs); remark: listed apart in the source
Description: as §1
The adipocyte induction medium is DMEM added with 1 nM T3, 1 μM Rosiglitazone, 0.5 mM isobutylmethylxanthine (IBMX), 0.5 μM dexamethason, 1 μg/mL Insulin and 10% FBS.
Once every 2 days, the medium was substituted by a fresh one. In groups 3-7, the cells were cultured in an adipocyte induction medium added with ALK5 inhibitor II only in the periods of Days 0-2, Days 0-4, Days 0-6, Days 0-8 and Days 0-10, respectively, and thereafter cultured in an adipocyte induction medium without addition of ALK5 inhibitor II. In group 8, the cells were cultured in an adipocyte induction medium added with ALK5 inhibitor II throughout the whole period of Days 0-14. On day 14, the medium was removed from each well by suction, the cells were washed with PBS(−) and total RNA was extracted from the cells by using RNA easy Mini Kit manufactured by Qiagen. cDNA was synthesized from the RNA by using Rever Tra Ace qPCR RT Master Mix. The cDNA was admixed with Real-time PCR Master Mix, primers specific to UCP1 gene or β actin gene and Taqman probe. qRT-PCR was performed using AB7300 Real-time PCR system. The mRNA level of UCP1 gene was quantified as a ratio to β actin gene mRNA and calculated with the value of fibroblast cultured in the normal medium as 1.

[3] = system: human dermal fibroblasts (HDFs); experiment: UCP1 mRNA response of induced cells to Isoproterenol or FSK stimulation (Example 3); format: cell-based; conditions: cells cultured 14 days in induction medium with D4476 in addition to T3 and Rosiglitazone; FIG. 3
Description: 10 μM Isoproterenol or FSK was added to these cells as described in the Figure. As a control, a group free of the addition was also prepared. After 5 hr, the culture medium was removed from each well by suction, the cells were washed with PBS(−) and total RNA was extracted from the cells with ISOGEN II. qRT-PCR was performed in the same manner as in Example 2. The mRNA level of UCP1 gene was quantified as a ratio to […] gene mRNA and calculated with the value of fibroblast cultured in the normal medium as 1.

[4] = system: human dermal fibroblasts (HDFs); experiment: UCP1 gene mRNA by real time RT-PCR (Example 2); format: cell-based; conditions: induction medium + T3 + Rosiglitazone, D4476 2 μM, FSK 2 μM, PD0325901 1 μM, SB431542 2 μM, day 14, FIG. 2
Description: This was seeded in a 24-well plate at a concentration of 1×10^4 cells/well (day 0), and culturing was started at 5% CO2/95% humid air, 37° C. The next day, the culture supernatant was removed by suction and, as described in the Figure, a normal medium, an adipocyte induction medium, or an adipocyte induction medium added with each low-molecular compound and the like was added at 500 μL/well. […] The concentrations of the additives are as follows: • T3: 1 nM • Rosiglitazone: 1 μM • D4476: 2 μM • Pifithrin alpha [p53 inhibitor]: 5 μM • Forskolin (FSK): 2 μM • PD0325901: 1 μM • SB431542: 2 μM. The culture medium was substituted by a fresh one every 3-4 days and the cells were cultured up to day 14.

[5] = system: human dermal fibroblasts (HDFs); experiment: BODIPY, UCP1 and DAPI co-staining (Example 10); format: cell-based; conditions: D4476 2 μM in addition to T3 and Rosiglitazone, day 14, FIG. 10A, 10B
Description: (§2) The next day, the culture supernatant was removed by suction and, as described in the Figure, a normal medium, an adipocyte induction medium, or an adipocyte induction medium added with each low-molecular-weight compound and the like was added at 500 μL/well.
(§3) The adipocyte induction medium is a 10% FBS-added DMEM+MDI medium (10% FBS-added DMEM supplemented with 0.5 mM isobutylmethylxanthine (IBMX), 0.5 μM dexamethason and 1 μg/mL Insulin).
(§4) The concentrations of the additives are as follows: • T3: 1 nM • Rosiglitazone: 1 μM • D4476: 2 μM.
(§5) The culture medium was substituted by a fresh one every 3-4 days and the cells were cultured up to day 14.
The cells were fixed with 4% para-formaldehyde and washed with PBS(−).
Then, the cells were reacted in BODIPY 493/503 (Invitrogen)/PBS solution at room temperature for 5 min, washed 3 times with PBS and stained with DAPI. The cells were photographed at a magnification of 200 with a fluorescence microscope.

[6] = system: human dermal fibroblasts (HDFs); experiment: Oil Red O staining (Example 9); format: cell-based; conditions: D4476 2 μM in addition to Rosiglitazone and T3, day 14, FIG. 9
Description: as §2, §3, §4, §5
The cells were washed 3 times with sterile distilled water, Oil Red O staining solution was added, and the mixture was incubated at room temperature for 15 min. Then the cells were washed with sterile distilled water and photographed at a magnification of 100 with a microscope.

SMILES: Cc1cccc(-c2n[nH]cc2-c2ccc3ncccc3n2)n1 [ALK5 Inhibitor II, 2-(3-(6-Methylpyridin-2-yl)-1H-pyrazol-4-yl)-1,5-naphthyridine]
- staining intensity of UCP1 protein and staining positive cells ([1]; #6: ALK5 inhibitor II 4 μM for days 0-8, then 6 days without it): the staining intensity of UCP1 protein was high and many staining positive cells were present
- UCP1 protein expression by immunostaining (conversion to brown adipocytes) ([1]; HDFs, ALK5 inhibitor II 4 μM in adipocyte induction medium, day 14, FIG. 14A, 14B): converted to brown adipocytes highly expressing UCP1 protein
- UCP1 protein expression ([1]; other conditions cultured in the presence of ALK5 inhibitor II (in FIG. #2-5, 7, 8)): High expression of UCP1 protein was also detected
- UCP1 gene expression (conversion to brown adipocytes) ([2]; HDFs, ALK5 inhibitor II 4 μM in adipocyte induction medium, day 14, FIG. 13): converted to brown adipocytes strongly expressing UCP1 gene
- UCP1 gene expression ([2]; group 6: ALK5 inhibitor II 4 μM for days 0-8, then 6 days without it): the highest expression of UCP1 gene was induced
- UCP1 gene expression ([2]; groups 3-5, 7, 8: ALK5 inhibitor II 4 μM for Days 0-2, 0-4, 0-6, 0-10 or 0-14): High expression of UCP1 gene was also induced

SMILES: NC(=O)c1ccc(-c2nc(-c3ccc4c(c3)OCCO4)c(-c3ccccn3)[nH]2)cc1 [D4476, 4-[4-(2,3-dihydro-1,4-benzodioxin-6-yl)-5-(2-pyridlnyl-)1H-imidazol-2-yl]-benzamide]
- responsiveness of induced cells to Isoproterenol or FSK stimuli [3]: brown adipocyte-like responsiveness
- mRNA expression of UCP1 gene (conversion to brown adipocytes) [4]: induced to brown adipocytes that express mRNA of UCP1 gene
- lipid droplets stained with Bodipy and UCP1 protein [5]: converted to brown adipocytes expressing lipid droplets stained with Bodipy and UCP1 protein
- Oil Red O staining [6]: remarkable Oil Red O staining as compared to the control

Reference: US20240084258A1, “METHOD FOR PREPARING BROWN ADIPOCYTE” (KYOTO PREFECTURAL PUBLIC UNIVERSITY CORPORATION, priority 2015, published 2024)
